A value given as a limit tells only on which side of the number the result lay.

We go through three molecules from patent US6005007A, “Retinoids, methods for their production and use” (priority 1997, dated 1999).

One assay deals with T1, RARα (Homo sapiens, UniProt P10276).
T1 sequence (P10276 1-462): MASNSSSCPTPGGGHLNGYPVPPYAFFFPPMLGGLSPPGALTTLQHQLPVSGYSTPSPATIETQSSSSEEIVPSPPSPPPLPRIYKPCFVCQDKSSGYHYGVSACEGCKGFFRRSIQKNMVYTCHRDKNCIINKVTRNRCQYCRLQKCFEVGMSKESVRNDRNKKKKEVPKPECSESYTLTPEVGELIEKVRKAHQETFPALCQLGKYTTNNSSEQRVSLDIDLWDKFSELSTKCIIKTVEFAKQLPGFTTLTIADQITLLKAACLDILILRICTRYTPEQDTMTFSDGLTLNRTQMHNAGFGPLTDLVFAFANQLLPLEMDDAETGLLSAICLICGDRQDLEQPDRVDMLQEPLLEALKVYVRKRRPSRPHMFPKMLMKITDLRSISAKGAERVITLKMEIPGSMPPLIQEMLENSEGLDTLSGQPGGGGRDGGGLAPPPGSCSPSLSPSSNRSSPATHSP
Briefly: Receptor binding, RARα. The following applies: tritiated retinoid competition.

The target of assay [1] is T2, RXRα (Homo sapiens, UniProt P19793).
T2 sequence (P19793 1-462): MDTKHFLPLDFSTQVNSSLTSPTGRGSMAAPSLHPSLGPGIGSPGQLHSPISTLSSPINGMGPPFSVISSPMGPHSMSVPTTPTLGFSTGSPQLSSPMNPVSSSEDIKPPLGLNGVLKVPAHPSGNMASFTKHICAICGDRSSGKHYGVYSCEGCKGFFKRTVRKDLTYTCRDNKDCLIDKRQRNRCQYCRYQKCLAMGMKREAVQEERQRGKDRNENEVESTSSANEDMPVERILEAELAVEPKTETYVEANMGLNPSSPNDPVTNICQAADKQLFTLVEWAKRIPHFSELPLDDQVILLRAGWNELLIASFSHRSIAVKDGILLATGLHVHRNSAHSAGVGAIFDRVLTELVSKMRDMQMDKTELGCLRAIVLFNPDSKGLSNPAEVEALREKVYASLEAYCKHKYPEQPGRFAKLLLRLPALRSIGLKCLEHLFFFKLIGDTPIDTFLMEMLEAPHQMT
Briefly: Receptor binding, RXRα. The following applies: tritiated retinoid competition.

The next assay deals with T3, RXRγ (Mus musculus, UniProt P28705).
T3 construct: expressed in transfected cells; host or cells: CV-1 (African green monkey kidney fibroblasts)
T3 sequence (P28705 1-463): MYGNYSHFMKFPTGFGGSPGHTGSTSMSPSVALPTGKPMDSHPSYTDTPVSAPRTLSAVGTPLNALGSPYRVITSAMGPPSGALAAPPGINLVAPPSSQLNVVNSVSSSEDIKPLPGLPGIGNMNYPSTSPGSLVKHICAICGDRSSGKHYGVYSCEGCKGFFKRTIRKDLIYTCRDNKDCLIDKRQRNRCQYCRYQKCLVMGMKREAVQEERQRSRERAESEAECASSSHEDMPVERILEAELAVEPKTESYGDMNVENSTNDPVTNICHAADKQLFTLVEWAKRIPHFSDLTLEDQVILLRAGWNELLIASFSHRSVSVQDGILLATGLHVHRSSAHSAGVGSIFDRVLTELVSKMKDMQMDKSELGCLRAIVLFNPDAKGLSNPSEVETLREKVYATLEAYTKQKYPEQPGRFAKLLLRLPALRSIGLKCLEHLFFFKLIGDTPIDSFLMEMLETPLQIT
Briefly: Co-transfection assay, RXRγ agonist activity. In kind it is cell-based. Particulars: CV-1 cells, luciferase reporter, read-out: RXRγ Pot. On the technique in general: In a reporter assay the amount or activity of a reporter protein is the signal.

Assay [2] has as its target T4, RARβ (Homo sapiens, UniProt P10826).
T4 sequence (P10826 1-448 isoform P10826-2): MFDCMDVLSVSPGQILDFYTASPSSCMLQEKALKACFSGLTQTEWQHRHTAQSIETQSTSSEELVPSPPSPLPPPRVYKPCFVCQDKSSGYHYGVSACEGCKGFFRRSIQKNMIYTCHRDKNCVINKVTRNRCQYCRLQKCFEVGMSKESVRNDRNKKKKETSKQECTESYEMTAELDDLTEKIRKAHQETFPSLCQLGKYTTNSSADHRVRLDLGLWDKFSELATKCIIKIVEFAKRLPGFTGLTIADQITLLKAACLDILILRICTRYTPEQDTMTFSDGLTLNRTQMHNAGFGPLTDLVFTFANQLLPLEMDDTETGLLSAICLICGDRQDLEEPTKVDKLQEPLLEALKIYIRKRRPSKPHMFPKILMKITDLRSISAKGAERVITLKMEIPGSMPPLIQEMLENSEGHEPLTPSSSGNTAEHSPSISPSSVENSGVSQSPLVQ
Nature of the assay: Receptor binding, RARβ. Particulars: tritiated retinoid competition.

Assay [3] deals with T2, RXRα. Nature of the assay: Co-transfection assay, RXRα agonist activity. The following applies: CV-1 cells, luciferase reporter, read-out: RXRα Pot. Further details: expressed in transfected cells; host or cells: CV-1 (African green monkey kidney fibroblasts). In kind it is cell-based.
A further assay deals with T5, RXRβ (Mus musculus, UniProt P28704).
T5 sequence (P28704 1-520): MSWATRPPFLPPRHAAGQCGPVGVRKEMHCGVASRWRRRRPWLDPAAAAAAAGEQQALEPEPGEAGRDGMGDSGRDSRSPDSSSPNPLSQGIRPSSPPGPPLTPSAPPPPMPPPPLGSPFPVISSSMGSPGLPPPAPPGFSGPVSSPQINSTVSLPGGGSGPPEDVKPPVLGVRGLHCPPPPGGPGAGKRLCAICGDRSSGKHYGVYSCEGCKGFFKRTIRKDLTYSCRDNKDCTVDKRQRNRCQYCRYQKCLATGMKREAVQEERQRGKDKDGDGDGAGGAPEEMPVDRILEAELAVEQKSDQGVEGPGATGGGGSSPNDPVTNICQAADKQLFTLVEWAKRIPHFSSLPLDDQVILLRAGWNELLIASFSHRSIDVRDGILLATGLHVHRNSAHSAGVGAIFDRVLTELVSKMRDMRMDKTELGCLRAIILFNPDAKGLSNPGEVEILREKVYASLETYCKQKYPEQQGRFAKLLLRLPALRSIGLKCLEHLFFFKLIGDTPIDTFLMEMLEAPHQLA
Briefly: Receptor binding, RXRβ. The following applies: tritiated retinoid competition.

Assay [4] deals with T4, RARβ. Briefly: Co-transfection assay, RARβ agonist activity. In kind it is cell-based. Particulars: CV-1 cells, luciferase reporter, read-out: RARβ Pot. The arrangement: expressed in transfected cells; host or cells: CV-1 (African green monkey kidney fibroblasts).

In the case of `CC(/C=C/CC1(c2cc(C(C)(C)C)cc3c2CCC3(C)C)CC1)=C\C(=O)O` [Compound 107, (2E, 4E)-6-[1-(6-t-butyl-1,1-dimethyl-indan-4-yl)-cyclopropyl]-3-methyl hexadienoic acid], the Kd (commonly the concentration at which binding is half-saturated) was above 5000 nM at RARα, 6 nM on RXRα [1], above 5000 nM at RARβ [2] and 15 nM on RXRβ. Also, the EC50 on RXRγ was 20 nM; on RXRα [3], 34 nM; on RARβ [4], above 10 µM.
For the molecule `CC(/C=C/CC1(c2ccc3c(c2)C(C)(C)CCC3(C)C)CCCC1)=C\C(=O)O` [Compound 108, (2E, 4E)-6-[(5,5,8,8-Tetramethyl-5,6,7,8-tetrahydronaphtha-len-2-yl)cyclopentane-1-yl]-3-methyl hexadienoic acid], the Kd was above 5000 nM on RARα, 41 nM on RXRα [1], above 5000 nM at RARβ [2] and 357 nM at RXRβ. The EC50 was 66 nM on RXRγ, 63 nM at RXRα [3] and above 10 µM at RARβ [4].
With `CC(/C=C/CC1(c2ccc3c(c2)C(C)(C)CCC3(C)C)CC1)=C\C(=O)O` [Compound 101, (2E, 4E)-6-[1-(5,5,8,8-Tetramethyl-5,6,7,8-tetrahydronaphtha-len-2-yl)cyclopropanyl]-3-methyl hexadienoic acid], the Kd at RARα was 644 nM; on RXRα [1] it was 2 nM; on RARβ [2] it was 463 nM; on RXRβ, 6 nM. The EC50 was found to be 14 nM on RXRγ, 13 nM at RXRα [3] and 0.017 µM at RARβ [4].
